Measurements as given in patent publication US20090264420A1, “ORGANIC COMPOUNDS” (priority 2006, published 2009).

Tests used:
aldosterone synthase = target: T1, aldosterone synthase (Homo sapiens, UniProt P19099); assay: Aldosterone production in Ang II-stimulated NCI-H295R cells (aldosterone synthase inhibition); format: cell-based; conditions: AS: aldosterone synthase
T1 construct: host or cells: NCI-H295R
T1 sequence (P19099 25-503): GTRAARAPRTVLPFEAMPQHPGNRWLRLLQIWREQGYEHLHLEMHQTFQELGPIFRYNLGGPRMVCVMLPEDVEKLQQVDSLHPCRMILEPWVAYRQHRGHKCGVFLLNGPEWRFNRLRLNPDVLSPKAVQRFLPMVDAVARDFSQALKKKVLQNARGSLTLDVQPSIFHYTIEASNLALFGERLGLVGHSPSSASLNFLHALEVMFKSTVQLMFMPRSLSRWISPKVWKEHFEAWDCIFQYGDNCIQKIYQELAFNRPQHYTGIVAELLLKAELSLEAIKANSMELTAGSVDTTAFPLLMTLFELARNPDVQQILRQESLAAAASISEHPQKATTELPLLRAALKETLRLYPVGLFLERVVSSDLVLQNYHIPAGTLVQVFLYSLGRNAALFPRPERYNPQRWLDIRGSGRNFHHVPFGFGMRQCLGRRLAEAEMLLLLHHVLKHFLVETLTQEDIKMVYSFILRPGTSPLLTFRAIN
From the text: (§1) Human adrenocortical carcinoma NCI-H295R cell line is obtained from American Type Culture Collection (Manassas, Va.). Insulin/transferrin/selenium (ITS)-A supplement (100×), DMEM/F-12, antibiotic/antimycotic (100×), and fetal calf serum (FCS) are purchased from Gibco (Grand Island, N.Y.). Anti-mouse PVT scintillation proximity assay (SPA) beads and NBS 96-well plates are obtained from Amersham (Piscataway, N.J.) and Corning (Acton, Mass.), respectively. Solid black 96-well flat bottom plates are purchased from Costar (Corning, N.Y.). Aldosterone and angiotensin (Ang II) are purchased from Sigma (St. Louis, Mo.). D-[1,2,6,7^−3H(N)]aldosterone was acquired from PerkinElmer (Boston, Mass.). Nu-serum was a product of BD Biosciences (Franklin Lakes, N.J.). The NADPH regenerating system, dibenzylfluorescein (DBF), and human aromatase Supersomes® are obtained from Gentest (Woburn, Mass.).
For in vitro measurement of aldosterone activity, human adrenocortical carcinoma NCI-H295R cells are seeded in NBS 96-well plates at a density of 25,000 cells/well in 100 μl′ of a growth medium containing DMEM/F12 supplemented with 10% FCS, 2.5% Nu-serum, 1 μg ITS/ml, and 1× antibiotic/antimycotic. The medium is changed after culturing for 3 days at 37° C. under an atmosphere of 5% CO2/95% air. On the following day, cells are rinsed with 100 μl of DMEM/F12 and incubated with 100 μl of treatment medium containing 1 μM Ang II and a compound at different concentrations in quadruplicate wells at 37° C. for 24 hr. At the end of incubation, 50 μl of medium is withdrawn from each well for measurement of aldosterone production by an RIA using mouse anti-aldosterone monoclonal antibodies.
Measurement of aldosterone activity can also be performed using, a 96-well plate format. Each test sample is incubated with 0.02 μCi of D-[1,2,6,7-^3H(N)]aldosterone and 0.3 μg of anti-aldosterone antibody in phosphate-buffered saline (PBS) containing 0.1% Triton X-100, 0.1% bovine serum albumin, and 12% glycerol in a total volume of 200 μl at room temperature for 1 hr. Anti-mouse PVT SPA beads (50 μl) are then added to each well and incubated overnight at room temperature prior to counting in a Microbeta plate counter. The amount of aldosterone in each sample is calculated by comparing with a standard curve generated using known quantities of the hormone.
(§2) Full concentration-response curves of the test compound are performed at least 3 times. The IC50 values are derived using a non-linear least squares curve-fitting program from Microsoft XLfit.

human aromatase = target: T2, human aromatase (Homo sapiens, UniProt P11511); assay: Human aromatase assay with dibenzylfluorescein substrate (fluorescence); format: biochemical; conditions: 1.5 h; percentage of inhibitory rate at 10 μM; ARO: Aromatase; read-out: ARO % I @ 10 μM
T2 construct: purchased Gentest (Woburn, Mass.)
T2 sequence (P11511 1-503): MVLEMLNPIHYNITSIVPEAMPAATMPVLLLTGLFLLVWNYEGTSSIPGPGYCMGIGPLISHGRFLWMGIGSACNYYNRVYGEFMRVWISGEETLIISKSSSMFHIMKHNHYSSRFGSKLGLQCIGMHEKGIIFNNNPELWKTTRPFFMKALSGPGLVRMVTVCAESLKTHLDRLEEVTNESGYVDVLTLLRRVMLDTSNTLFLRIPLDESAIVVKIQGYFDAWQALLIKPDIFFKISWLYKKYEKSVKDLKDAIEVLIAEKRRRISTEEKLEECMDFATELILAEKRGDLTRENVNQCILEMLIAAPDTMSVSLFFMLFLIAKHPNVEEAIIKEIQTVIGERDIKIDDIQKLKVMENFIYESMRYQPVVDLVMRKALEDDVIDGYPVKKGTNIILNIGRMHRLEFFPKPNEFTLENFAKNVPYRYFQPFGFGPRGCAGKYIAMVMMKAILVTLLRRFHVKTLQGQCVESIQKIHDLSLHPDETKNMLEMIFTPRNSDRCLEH
From the text: as §1
To measure aromatase activity, the human aromatase assay is performed in 96-well flat bottom plates according to a published protocol (Stresser et al, 2000) with minor modifications. Briefly, 10 μl, of an NADPH regenerating system containing 2.6 mM NADP^+, 6.6 mM glucose 6-phosphate, 6.6 mM MgCl2, and 0.8 U/ml glucose-6-phosphate dehydrogenase in 50 mM potassium phosphate, pH 7.4, is pre-incubated with the test compound at a desired concentration at 30° C. for 10 min in a total volume of 100 μl. Afterwards, 4 pmol of human aromatase, 20 μg of control microsomal protein, and 4 μM DBF in 100 μl of 50 mM potassium phosphate, pH 7.4, is added to each well and incubated at 30° C. for 90 min. The reaction is terminated by the addition of 75 μl of 2 N NaOH to each well. After 2 hr, the product, fluorescein, is measured by a fluorimeter using excitation and emission wavelengths of 485 and 538 nm, respectively.
as §2

CYP11B1 = target: T3, CYP11B1 (Homo sapiens, UniProt P15538); assay: CYP11B1 inhibition in NCI-H295R cells (steroid release by radioimmunoassay); format: cell-based; conditions: percentage of inhibitory rate at 100 nM; 11B1: CYP11B1
T3 construct: Thus, the NCI-H295R cells have Cyp 11 B1 (steroid 11 p-hydroxylase); host or cells: NCI-H295R
T3 sequence (P15538 25-503): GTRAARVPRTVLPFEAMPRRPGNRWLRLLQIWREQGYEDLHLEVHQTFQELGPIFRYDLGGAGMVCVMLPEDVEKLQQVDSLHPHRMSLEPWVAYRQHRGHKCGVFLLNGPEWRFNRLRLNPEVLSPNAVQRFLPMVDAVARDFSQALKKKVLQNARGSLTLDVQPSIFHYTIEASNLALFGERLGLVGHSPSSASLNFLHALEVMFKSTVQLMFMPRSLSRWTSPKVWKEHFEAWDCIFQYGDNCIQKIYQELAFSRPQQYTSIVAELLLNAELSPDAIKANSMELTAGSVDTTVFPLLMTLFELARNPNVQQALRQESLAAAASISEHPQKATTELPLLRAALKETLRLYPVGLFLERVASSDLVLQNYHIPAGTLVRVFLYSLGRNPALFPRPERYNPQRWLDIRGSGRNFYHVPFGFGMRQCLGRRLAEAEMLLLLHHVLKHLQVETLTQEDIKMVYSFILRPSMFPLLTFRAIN
From the text: The in vitro inhibitory activities for CYP 11 B1 can be determined by the following assay.
The cell line NCI-H295R was originally isolated from an adrenocortical carcinoma and has been characterized in the literature through the stimulable secretion of steroid hormones and the presence of the enymes essential for steroidogenesis. Thus, the NCI-H295R cells have Cyp 11 B1 (steroid 11 p-hydroxylase). The cells show the physiological property of zonally undifferentiated human foetal adrenocortical cells which, however, have the capacity to produce the steroid hormones which are formed in the three, phenotypically distinguishable zones in the adult adrenal, cortex.
The NCI-H295R cells (American Type Culture Collection, ATCC, Rockville, Md., USA) are grown in Dulbeoco's Modified Eagle Ham F-12 Medium (DME/F12), which has been I supplemented with Ulroser SF Serum (Soprachem, Cergy-Saint-Christophe, France), insulin, transferrin, selenite (1-T-S, Becton Dickinson Biosiences, Franklin lakes, NJ, USA) and antibiotics in 75 cm^2 cell culture vessels at 37° C. and in a 95% air-5% carbon dioxide atmosphere. The cells are subsequently transferred for colony formation into a 24-well incubation vessel. They are cultivated there in DME/F12 medium, which is now supplemented with 0.1% bovine serum instead of Ultroser SF for 24 hours. The experiment is initiated by cultivating the cells in DME/F12 medium which is supplemented with 0.1% bovine serum albumin and test compound, in the presence or absence of cell stimulants, for 72 hours. The test substance is added in a concentration range from 0.2 nanomolar to […]. […]
The excretion of aldosterone, cortisol, corticosterone and estradiol/estrone into the culture medium can be detected and quantified by commercially available; specific monoclonal antibodies in radioimmunoassays in accordance with the manufacturer's instructions.
Inhibition of the release of certain steroids can be used as a measure of the respective enzyme inhibition by the added test compounds. The dose-dependent inhibition of enzymic activity by a compound is calculated by means of an inhibition plot which is characterized by an IC50.
The IC50 values for active test compounds are ascertained by a simple linear regression analysis in order to construct inhibition plots without data weighting. The inhibition plot is calculated by fting a 4-parameter logistic function to the raw data points using the least squares method. The equation of the 4-parameter logistic function is calculated as follows: Y=(d−a)/((1+(x/c)b))+aI where: a=minimum data level b gradient I c=ICED d=maximum data level x=inhibitor concentration.

SMILES	IC50 (aldosterone synthase) [nM]	inhibition at 10 µM (human aromatase) [%]	11B1 % I @ 100 nM (CYP11B1) [%]
CCC(C)(C)C1C(=O)N(Cc2cccc(F)c2)CCc2cncn21 (single isomer, unassigned) [Compound 2, 4-(1,1-Dimethyl-propyl)-6-(3-fluoro-benzyl)-7,8-dihydro-6H-2,3a,6-triaza-azulen-5-one]	48	60	100
O=C1N(Cc2ccc(F)cc2)Cc2cncn2C12CCCCC2 [Compound 4, 7′-(4-fluorobenzyl)-7′,8′-dihydro-6′H-spiro[cyclohexane-1,5′-imidazole[1,5-a]pyrazin]-6-one]	73	–	99
CCC1(C(C)(C)C)C(=O)N(Cc2ccc(F)cc2)Cc2cncn21 (single isomer, unassigned) [Compound 1, 5-tert-Butyl-5-ethyl-7-(4-fluoro-benzyl)-7,8-dihydro-imidazo[1,5-a]pyrazin-6-one]	139	18	–
O=C1C(C2CCC2)n2cncc2CN1Cc1ccc(F)cc1 (single isomer, unassigned) [Compound 5, 5-Cyclobutyl-7-(4-fluoro-benzyl)-7,8-dihydro-imidazo[1,5-a]pyrazin-6-one]	18	93	–
CCC(C)(C)C1C(=O)N(CC2CCCCC2)Cc2cncn21 (single isomer, unassigned) [Compound 7, 7-Cyclohexylmethyl-5 (1,1-dimethyl-propyl)-7,8-dihydro-imidazo[1,5-a]pyrazin-6-one]	7	50	–
CC(C)C1C(=O)N(CC2CCCCC2)Cc2cncn21 (single isomer, unassigned) [Compound 3, 7-Cyclohexylmethyl-5-isopropyl-7,8-dihydro-imidazo[5-a]pyrazin-6-one]	11	48	–
CC(C)(C)C1C(=O)N(Cc2ccc(Cl)cc2)Cc2cncn21 (single isomer, unassigned) [Compound 6, 5-tert-Butyl-7-(4-chloro-benzyl)-7,8-dihydro-imidazo[1,5-a]pyrazin-6-one]	3	51	98

Further lines, results first:

IC50 (aldosterone synthase) [nM]	inhibition at 10 µM (human aromatase) [%]	11B1 % I @ 100 nM (CYP11B1) [%]	SMILES
66	74	95	N#Cc1ccc(CN2Cc3cncn3C(C3CC3)C2=O)cc1 (single isomer, unassigned) [Compound 8, 4-(5-Cyclopropyl-6-oxo-5,6-dihydro-8H-imidazo[1,5-a]pyrazin-7-ylmethyl)-benzonitrile]
231	94	–	CC(C)C1C(=O)N(Cc2cccc(F)c2)Cc2cncn21 (single isomer, unassigned) [Compound 9, 7-(3-Fluoro-benzyl)-5-isopropyl-7,8-dihydro-imidazo[1,5-a]pyrazin-6-one]
190	–	–	CCC(C)(C)C1C(=O)N(CC2CCOCC2)Cc2cncn21 (single isomer, unassigned) [Compound 10, 5-(1,1-Dimethyl-propyl)-7-(tetrahydro-pyran-4-ylmethyl)-7,8-dihydro-imidazo[5-a]pyrazin-6-one]
197	99	–	O=C1C(C2CCC2)n2cncc2CCN1Cc1ccc(F)cc1 (single isomer, unassigned) [Compound 11, 4-Cyclobutyl-6-(4-fluoro-benzyl)-7,8-dihydro-6H-2,3a,6-triaza-azulen-5-one]
